How the values were obtained:
[1] = Solubility in cosmetic oils (Finsolv TN); type: physicochemical
[2] = Tanning experiment (liquid skin model); settings: for L* (Lab values after 24 hours) / a* (Lab values after 24 hours) / b* (Lab values after 24 hours): 1 mmol substance + 1 mmol DL-lysine in ethylene glycol/water, pH=7, after 24 h, UV-VIS spectrometer; for Kinetics of tanning reaction compared with DHA: documented via photos; for Coloration/shade compared with DHA: from Lab values after 24 h; for Speed of tanning reaction relative to DHA: optical assessment
Description: Tanning Experiment (Liquid Skin Model)
1 mmol of the self-tanner substance to be tested are dissolved in 94 ml of ethylene glycol and 6 ml of water (potassium hydrogenphthalate-buffered to pH=7) with 146 mg of DL-lysine (1 mmol) and stirred for 24 hrs. (=liquid skin model). The kinetics are documented via photos. After 24 h, the colour values (L*a*b* system) of the solution are measured by UV-VIS spectrometer (Varian Cary-50) in order to be able to assess the effect on the skin tones.

| Structure (SMILES) | Solubility in cosmetic oil [1] [%] | L* (Lab values after 24 hours) [2] | a* (Lab values after 24 hours) [2] | b* (Lab values after 24 hours) [2] | Kinetics of tanning reaction compared with DHA [2] | Coloration/shade compared with DHA [2] | Speed of tanning reaction relative to DHA [2] |
| --- | --- | --- | --- | --- | --- | --- | --- |
| O=C(CO)COCc1ccccc1 [MBDE, 1-benzyloxy-3-hydroxypropan-2-one] | 0.24 | 42.6 | 32.0 | 70.0 | faster tanning reaction than DHA | strong shift towards a redder shade | doubling of the speed |
| O=C(CO)COCC1CCCCC1 [MCHMDE, monocyclohexylmethyl-DHA ether] | 0.97 | 45.3 | 18.2 | 50.5 |  | strong shift towards a more yellow shade |  |
| CCCCC(CC)COCC(=O)CO (centres unmarked) [MEHDE, mono-2-ethylhexyl-DHA ether] | 2.25 | 86.5 | 4.7 | 24.3 |  | paler coloration |  |
| CCCCCCCOCC(=O)CO [MHDE, 1-heptyloxy-3-hydroxypropan-2-one] |  | 0.1 | 0.4 | 0.2 | faster tanning reaction than DHA | darker coloration | doubling of the speed |

Reference: patent US20130272978A1, “DIHYDROXYACETONE MONOETHERS” (MERCK PATENT GMBH, priority 2010, published 2013)
